Among the data in patent US10730863B2, “Bridged bicyclic compounds as farnesoid X receptor modulators” (BRISTOL-MYERS SQUIBB COMPANY, priority 2017, dated 2020) are EC50 values, retold here.

The target of this test is FXR (Homo sapiens (Human), UniProt Q96RI1). Nature of the test: FXR EC50 (FXR agonist activity reported with each example). The format is cell-based.
FXR, sequence (Q96RI1 262-486): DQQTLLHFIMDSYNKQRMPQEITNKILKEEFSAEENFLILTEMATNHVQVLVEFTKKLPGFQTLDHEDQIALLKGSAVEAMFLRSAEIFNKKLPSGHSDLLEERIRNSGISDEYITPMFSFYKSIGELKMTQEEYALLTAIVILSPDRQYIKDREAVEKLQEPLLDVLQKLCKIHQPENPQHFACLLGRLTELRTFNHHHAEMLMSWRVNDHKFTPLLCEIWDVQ
Molecule `O=C(O)c1ccc(N2CCCC2)c2nc(C34CCC(OCc5c(-c6c(Cl)cncc6Cl)noc5C5CC5)(CC3)CC4)ccc12` [Example 409] displayed an EC50 of 81 nM.
Consider `Cc1nc(C23CCC(/C=C/c4c(-c5c(Cl)cncc5Cl)noc4C4CC4)(CC2)CC3)sc1C(=O)O` [Example 509, (E)-2-(4-(2-(5-cyclopropyl-3-(3,5-dichloropyridin-4-yl)isoxazol-4-yl)vinyl)bicyclo[2.2.2]octan-1-yl)-4-methylthiazole-5-carboxylic acid], for which it took 40 nM to reach a half-maximal effect (EC50). This EC50 is about 2-fold lower than that of the molecule before.
As to `O=C(O)c1ccc(-c2noc(C34CCC(OCc5c(-c6ccccc6C(F)(F)F)noc5C5CC5)(CC3)CC4)n2)cc1` [Example 29], the EC50 came out at 330 nM.
Take `CC(C)Oc1cc(Cl)c2nc(C34CCC(OCc5c(-c6c(Cl)cncc6Cl)noc5C5CC5)(CC3)CC4)ccc2c1C(=O)O` [Example 427]: the EC50 was 5 nM.
Molecule `COCCOc1cc(OCC23CCC(OCc4c(-c5c(Cl)cncc5Cl)noc4C4CC4)(CC2)CC3)cnc1C(=O)O` [Example 336] gave an EC50 of 160 nM.
Consider `O=C(O)c1cc(OCC23CCC(OCc4c(-c5c(Cl)cncc5Cl)noc4C4CC4)(CC2)CC3)ccc1F` [Example 277], for which a half-maximal effect (EC50) was put at 47 nM.
Then `O=C(O)C1(c2noc(C34CCC(OCc5c(-c6c(Cl)cncc6Cl)noc5C5CC5)(CC3)CC4)n2)CC1` [Example 271, 1-(5-(4-((5-cyclopropyl-3-(3,5-dichloropyridin-4-yl)isoxazol-4-yl)methoxy)bicyclo[2.2.2]octan-1-yl)-1,2,4-oxadiazol-3-yl)cyclopropane-1-carboxylic acid], with 1100 nM; and `O=C(O)c1ccc(-c2noc(C34CCC(OCc5c(-c6ccccc6OC(F)(F)F)noc5C5CC5)(CC3)CC4)n2)cn1` [Example 12, 5-(5-(4-((5-cyclopropyl-3-(2-(trifluoromethoxy)phenyl)isoxazol-4-yl)methoxy)bicyclo[2.2.2]octan-1-yl)-1,2,4-oxadiazol-3-yl)picolinic acid], with 1200 nM.
`CC1(c2noc(C3CC3)c2COC23CCC(c4ccc5c(C(=O)O)cccc5n4)(CC2)CC3)CC1(F)F` (stereo not drawn) [Example 425, 2-(4-((5-cyclopropyl-3-(2,2-difluoro-1-methylcyclopropyl)isoxazol-4-yl)methoxy)bicyclo[2.2.2]octan-1-yl)quinoline-5-carboxylic acid] showed a concentration for a half-maximal effect (EC50) of 3400 nM.
Then `O=C(O)c1ccc2c(C(O)C34CCC(OCc5c(-c6c(Cl)cccc6Cl)noc5C5CC5)(CC3)CC4)ccnc2c1` (stereo not drawn) [Example 128, 4-((4-((5-cyclopropyl-3-(2,6-dichlorophenyl)isoxazol-4-yl)methoxy)bicyclo[2.2.2]octan-1-yl)(hydroxy)methyl)quinoline-7-carboxylic acid], with 700 nM; and `O=C(O)c1cccc(-c2noc(C34CCC(/C=C/c5c(-c6c(Cl)cncc6Cl)noc5C5CC5)(CC3)CC4)n2)c1` [Example 504, (E)-3-(5-(4-(2-(5-cyclopropyl-3-(3,5-dichloropyridin-4-yl)isoxazol-4-yl)vinyl)bicyclo[2.2.2]octan-1-yl)-1,2,4-oxadiazol-3-yl)benzoic acid], with 33 nM; and `O=C(O)c1ccc(OCC23CCC(OCc4c(-c5c(Cl)cncc5Cl)noc4C4CC4)(CC2)CC3)nc1` [Example 114, 6-((4-((5-cyclopropyl-3-(3,5-dichloropyridin-4-yl)isoxazol-4-yl)methoxy)bicyclo[2.2.2]octan-1-yl)methoxy)nicotinic acid], with 140 nM.
As to `O=C(O)c1ccc2cc(OCC34CCC(OCc5c(-c6c(Cl)cncc6Cl)noc5C5CC5)(CC3)CC4)ccc2n1` [Example 115, 6-((4-((5-cyclopropyl-3-(3,5-dichloropyridin-4-yl)isoxazol-4-yl)methoxy)bicyclo[2.2.2]octan-1-yl)methoxy)quinoline-2-carboxylic acid], the EC50 came to 52 nM.
The molecule `CS(=O)(=O)NC(=O)c1cc(C(F)(F)F)c2cc(OCC34CCC(OCc5c(-c6c(Cl)cncc6Cl)noc5C5CC5)(CC3)CC4)ccc2n1` [Example 286] registered an EC50 of 19 nM.
Take `O=C(O)c1cc(OC(F)F)c2cc(C#CC34CCC(OCc5c(-c6c(Cl)cncc6Cl)noc5C5CC5)(CC3)CC4)ccc2n1` [Example 376]: the EC50 turned out to be 27 nM.
For the molecule `CC(C)(C#N)c1ccc(C23CCC(/C=C/c4c(-c5ccccc5C(F)(F)F)noc4C4CC4)(CC2)CO3)cc1` [Example 476, (E)-2-(4-(4-(2-(5-cyclopropyl-3-(2-(trifluoromethyl)phenyl)isoxazol-4-yl)vinyl)-2-oxabicyclo[2.2.2]octan-1-yl)phenyl)-2-methylpropanenitrile], the EC50 was 690 nM. This EC50 is about 26-fold higher than that of the molecule before.
Next, `CCOc1cc(OCC23CCC(OCc4c(-c5c(Cl)cncc5Cl)noc4C4CC4)(CC2)CC3)cnc1C(=O)O` [Example 294, 5-((4-((5-cyclopropyl-3-(3,5-dichloropyridin-4-yl)isoxazol-4-yl)methoxy)bicyclo[2.2.2]octan-1-yl)methoxy)-3-ethoxypicolinic acid]: 32 nM; `O=C(O)c1cc(-c2nc(C34CCC(OCc5c(-c6ccccc6OC(F)(F)F)noc5C5CC5)(CC3)CC4)no2)ccn1` [Example 58]: 4000 nM; `O=C(O)c1c(F)ccc2nc(C34CCC(OCc5c(-c6c(Cl)cncc6Cl)noc5C5CC5)(CC3)CC4)sc12` [Example 512, 2-(4-((5-cyclopropyl-3-(3,5-dichloropyridin-4-yl)isoxazol-4-yl)methoxy)bicyclo[2.2.2]octan-1-yl)-6-fluorobenzo[d]thiazole-7-carboxylic acid]: 43 nM.
The molecule `O=C(O)Cc1cccc(OCC23CCC(OCc4c(-c5c(Cl)cccc5Cl)noc4C4CC4)(CC2)CC3)c1` [Example 106, 2-(3-((4-((5-cyclopropyl-3-(2,6-dichlorophenyl)isoxazol-4-yl)methoxy)bicyclo[2.2.2]octan-1-yl)methoxy)phenyl)acetic acid] yielded an EC50 of 160 nM.
The molecule `COc1c(C(=O)O)cc(F)cc1-c1noc(C23CCC(OCc4c(-c5c(Cl)cncc5Cl)noc4C4CC4)(CC2)CC3)n1` [Example 245, 3-(5-(4-((5-cyclopropyl-3-(3,5-dichloropyridin-4-yl)isoxazol-4-yl)methoxy)bicyclo[2.2.2]octan-1-yl)-1,2,4-oxadiazol-3-yl)-5-fluoro-2-methoxybenzoic acid] had an EC50 of 46 nM.
Then `O=C(O)c1cc(F)cc(-c2noc(C34CCC(/C=C/c5c(-c6c(Cl)cncc6Cl)noc5C5CC5)(CC3)CC4)n2)c1` [Example 442, (E)-3-(5-(4-(2-(5-cyclopropyl-3-(3,5-dichloropyridin-4-yl)isoxazol-4-yl)vinyl)bicyclo[2.2.2]octan-1-yl)-1,2,4-oxadiazol-3-yl)-5-fluorobenzoic acid], with 79 nM; and `O=C(O)c1cc(C(F)(F)F)c2cc(C#CC34CCC(OCc5c(-c6c(Cl)cncc6Cl)noc5C5CC5)(CC3)CC4)ccc2n1` [Example 364], with 42 nM; and `O=C(O)c1csc(OCC23CCC(OCc4c(-c5c(Cl)cncc5Cl)noc4C4CC4)(CC2)CC3)n1` [Example 465, 2-((4-((5-cyclopropyl-3-(3,5-dichloropyridin-4-yl)isoxazol-4-yl)methoxy)bicyclo[2.2.2]octan-1-yl)methoxy)thiazole-4-carboxylic acid], with 180 nM.
Then `O=C(O)c1cccc2cc(OCC34CCC(OCc5c(-c6c(Cl)cncc6Cl)noc5C5CC5)(CC3)CC4)cnc12` [Example 352, 3-((4-((5-cyclopropyl-3-(3,5-dichloropyridin-4-yl)isoxazol-4-yl)methoxy)bicyclo[2.2.2]octan-1-yl)methoxy)quinoline-8-carboxylic acid], with 55 nM; and `CC(C)Oc1cc(-c2noc(C34CCC(OCc5c(-c6c(Cl)cncc6Cl)noc5C5CC5)(CC3)CC4)n2)cc(C(=O)O)n1` [Example 258, 4-(5-(4-((5-cyclopropyl-3-(3,5-dichloropyridin-4-yl)isoxazol-4-yl)methoxy)bicyclo[2.2.2]octan-1-yl)-1,2,4-oxadiazol-3-yl)-6-isopropoxypicolinic acid], with 8 nM.
For the molecule `O=C(O)c1cc(-c2noc(C34CCC(OCc5c(-c6ccccc6C(F)(F)F)noc5C5CC5)(CC3)CC4)n2)ccn1` [Example 50], the response was half-maximal at 2100 nM (EC50).
Next, `O=C(O)c1ccc(NC(=S)C23CCC(COCc4c(-c5c(Cl)cccc5Cl)noc4C4CC4)(CC2)CC3)c(Cl)c1` [Example 171, 3-chloro-4-(4-(((5-cyclopropyl-3-(2,6-dichlorophenyl)isoxazol-4-yl)methoxy)methyl)bicyclo[2.2.2]octane-1-carbothioamido)benzoic acid]: 4700 nM; `O=C(O)c1ccc(CNC(=O)C23CCC(OCc4c(-c5c(Cl)cccc5Cl)noc4C4CC4)(CC2)CC3)cc1` [Example 141, 4-((4-((5-cyclopropyl-3-(2,6-dichlorophenyl)isoxazol-4-yl)methoxy)bicyclo[2.2.2]octane-1-carboxamido)methyl)benzoic acid]: 2800 nM; `O=C(O)c1cc(C(F)(F)F)c2cc(OCC34CCC(OCc5c(-c6ccccc6C(F)(F)F)noc5C5CC5)(CC3)CC4)ccc2n1` [Example 288]: 250 nM.
Consider `O=C(O)c1ccc(-c2noc(C34CCC(OCc5c(-c6c(Cl)cccc6Cl)noc5C5CC5)(CC3)CO4)n2)cc1` [Example 196], for which the 50% effective concentration (EC50) was found to be 83 nM.
The molecule `O=C(O)c1cccc(-c2noc(C34CCC(OCc5c(-c6c(Cl)cccc6Cl)noc5C5CC5)(CC3)CC4)n2)n1` [Example 13, 6-(5-(4-((5-cyclopropyl-3-(2,6-dichlorophenyl)isoxazol-4-yl)methoxy)bicyclo[2.2.2]octan-1-yl)-1,2,4-oxadiazol-3-yl)picolinic acid] showed an EC50 of 270 nM. This EC50 is about 3.3-fold higher than that of the molecule before.
Next, `COc1ccc(-c2noc(C34CCC(OCc5c(-c6c(Cl)cnn6C)noc5C5CC5)(CC3)CC4)n2)cc1C(=O)O` [Example 273, 5-(5-(4-((3-(4-chloro-1-methyl-1H-pyrazol-5-yl)-5-cyclopropylisoxazol-4-yl)methoxy)bicyclo[2.2.2]octan-1-yl)-1,2,4-oxadiazol-3-yl)-2-methoxybenzoic acid]: 3300 nM.
